Drawing on the SangsterLogP compilation, this text covers logP for 18 molecules.

The logP is a log measure of how a compound divides between an organic and an aqueous phase. A higher logP goes with a more lipophilic compound.

This series in a line: method code SF-AS, from DOI: 10.1002/recl.19891080306.
As for `COCCOCCOCCOc1ccccc1OCCOCCOCCOC`, the logP worked out at 0.38.

`COCCOCCOc1ccccc1OCCOCCOC`: the logP was 0.76.

Molecule `COCCOCCOc1cccc(OCCOCCOC)c1` returned a logP of 0.86.

Molecule `c1ccc2c(c1)OCCOCCOCCOCCOCCOCCO2` registered a logP of 0.57. Under `c1ccc2c(c1)OCCOCCOCCOCCOCCOCCOCCOCCOCCO2` stands 0.03. `c1ccc2c(c1)OCCOCCOCCOCCOCCOCCOCCO2` registered a logP of 0.45. With `c1ccc2c(c1)OCCOCCOCCOc1ccccc1OCCOCCOCCO2`, the logP amounted to 2.11. For the molecule `c1ccc2c(c1)OCCOCCOCCOCCOCCOCCOCCOc1ccccc1OCCOCCOCCOCCOCCOCCOCCO2`, the logP stood at 0.52. With `c1ccc2c(c1)OCCOCCOc1ccccc1OCCOCCO2`, the logP is 2.2. In the case of `COCCOCCOc1ccc(OCCOCCOC)cc1`, the logP was determined as 0.76. Under `c1ccc2c(c1)OCCOCCOCCOCCO2` stands 0.91; under `c1ccc2c(c1)OCCOCCOCCOCCOCCOCCOCCOCCO2`, 0.23; under `c1ccc2c(c1)OCCOCCOCCOCCOc1ccccc1OCCOCCOCCOCCO2`, 1.8. Turning to `c1ccc2c(c1)OCCOCCOCCOCCOCCOCCOc1ccccc1OCCOCCOCCO2`, the logP was determined as 1.45.

Molecule `c1ccc2c(c1)OCCOCCOCCOCCOCCOCCOCCOc1ccccc1OCCO2` came in with a logP of 1.82. Under `c1ccc2c(c1)OCCOCCOCCOCCOCCOCCOCCOCCOCCOCCO2` stands -0.09.

On to `c1ccc2c(c1)OCCOCCOCCOCCOCCO2`, for which the logP came out at 0.58.

On to `c1ccc2c(c1)OCCOCCOCCOCCOCCOCCOc1ccccc1OCCO2`, for which the logP was found to be 1.63.
